Measurements published in US9572816B2, “Method of treatment of disease” (TECHNION RESEARCH AND DEVELOPMENT FOUNDATION LTD., priority 2012, dated 2017).

What was measured:
development of cataract = conditions: clinical studies, reported in the literature; cited from earlier work
[1] = Body weight in rat model of STZ-induced diabetes; assay type: in vivo, Sprague Dawley rats; conditions: STZ-diabetic rats, 7-week treatment
Method: (§1) Eight to ten-week old male Sprague Dawley rats were used in the model. Rat handling was performed according to guidelines of the National Institute of Health (NIH) and the Association for Assessment and Accreditation of Laboratory Animal Care (AAALAC). Diabetes was induced by intraperitoneal injection of 50 mg/kilogram (mg/kg) STZ (in 0.1 molar citrate buffer), which is a dose generally sufficient to destroy all insulin-producing beta cells and induce a diabetic disease-like state. Two weeks later, glucose levels were measured and rats displaying a level lower than 200 mg per deciliter (dL) were excluded from the study. The remaining rats were randomly divided into 3 groups (according to body weight and serum glucose levels): a control group, a corrole group and an LPA group. Each group received a 7-week course of treatment. The control group (13 rats) received water with no active ingredient. The corrole group (14 rats) received 20 mg/kg/day of the corrole designated 1-Fe. 1-Fe was synthesized using the procedure described in Mahammed et al. (Mahammed, Goldberg, & Gross, 2001). The LPA group (13 rats) received 50 mg/kg/day LPA. LPA was formulated for administration by dissolving in 1 millimolar sodium hydroxide (NaOH) which was then brought to a pH of 7.5. […]

[2] = tested on: rat model of STZ-induced diabetes; assay: Creatinine clearance rate (CrCl), kidney damage in rat model of STZ-induced diabetes; assay type: in vivo; conditions: after 7 weeks of treatment
Method: as §1, with “treatment.” for “treatment. The control group (13 rats) received water with no active ingredient. The corrole group (14 rats) received 20 mg/kg/day of the corrole designated 1-Fe. 1-Fe was synthesized using the procedure described in Mahammed et al. (Mahammed, Goldberg, & Gross, 2001). The LPA group (13 rats) received 50 mg/kg/day LPA. LPA was formulated for administration by dissolving in 1 millimolar sodium hydroxide (NaOH) which was then brought to a pH of 7.5.”
A rat model was performed as in example 1, but rather than testing for eye damage, blood testing was used to test for creatinine levels. […] Creatinine clearance rate (CrCl), an established measure for evaluating renal function, was calculated for rats in all groups of the trial by dividing the amount of creatinine in the urine (mg/minute) by its concentration in the serum (mg/ml).
CrCl was measured: a) before induction of diabetes; b) 2 weeks later when the treatment commenced; and c) following 7 weeks of treatment (9 weeks from STZ injection).

[3] = tested on: rat model of STZ-induced diabetes; assay: Cataract by lens opacity (slit-lamp biomicroscope) in rat model of STZ-induced diabetes; assay type: in vivo, Sprague Dawley rats; conditions: 7 weeks
Method: as §1, with “2001).” for “2001). The LPA group (13 rats) received 50 mg/kg/day LPA. LPA was formulated for administration by dissolving in 1 millimolar sodium hydroxide (NaOH) which was then brought to a pH of 7.5.”
Cataract was evaluated a day before termination of the trial in live rats by measurement of opacities of the rat's lenses of each eye with a slit-lamp biomicroscope following the application of tropicamide eye drops. […]
A rat having a score in at least one eye of 1 or higher was considered to have developed a cataract. The percentage of rats in each group having a cataract (cataract incidence) as determined by opacity measurements for each group is shown in FIG. 1A. […]
The degree of cataract for both eyes as determined by averaging each group's cataract scoring of both eyes of each rat as determined by opacity measurement is shown in FIG. 1B.
As cataract may develop at a different rate in each of the animals' eyes, the degree of cataract for the rats' worse eye was evaluated. The degree of cataract for the rats' worse eye was determined by averaging each group's cataract scoring of each animal's worse eye as determined by opacity measurement, and is shown in FIG. 1C. […]

[4] = tested on: rat model of STZ-induced diabetes; assay: Cataractous damage by histological examination (H&E) of lenses in rat model of STZ-induced diabetes; assay type: in vivo, Sprague Dawley rats; conditions: 7 weeks
Method: as §1, with “treatment.” for “treatment. The control group (13 rats) received water with no active ingredient. The corrole group (14 rats) received 20 mg/kg/day of the corrole designated 1-Fe. 1-Fe was synthesized using the procedure described in Mahammed et al. (Mahammed, Goldberg, & Gross, 2001). The LPA group (13 rats) received 50 mg/kg/day LPA. LPA was formulated for administration by dissolving in 1 millimolar sodium hydroxide (NaOH) which was then brought to a pH of 7.5.”
The development of cataractous damage was further evaluated by histological examination. […]
A rat having a score in at least one eye of 1 or higher was considered to have suffered a cataractous damage. The percentage of rats in each group having a cataractous damage (cataract damage incidence) as determined by histological examination of lenses for each group is shown in FIG. 1D.
The degree of cataractous damage for both eyes as determined by averaging each group's cataract scoring of both eyes of each rat as determined by histological examination is shown in FIG. 1E. […]

DN in a rat model = conditions: administered in levels sufficient to be present in the kidney; cited from earlier work

CC1=C(/C=C/C(C)=C/C=C/C(C)=C/C=C/C=C(C)/C=C/C=C(C)/C=C/C2=C(C)CCCC2(C)C)C(C)(C)CCC1 [beta-carotene]
Effect on the development of cataract (development of cataract): no significant effect

vitamin E
Effect on the development of cataract (development of cataract): no significant effect

O=C(O)CCCCC1CCSS1 (stereo not drawn) [LPA, alpha lipoic acid]
Body weight change during the treatment phase [1]: significant weight loss | CrCl ([2]; STZ-diabetic rats, 1-Fe 20 mg/kg/day, LPA 50 mg/kg/day): 1.36 mL/min | Increase in creatinine clearance relative to the control group ([2]; 1-Fe p=0.027, LPA p=0.078): 89% | Reduction in degree of cataract, both eyes (opacity score 0-4), relative to control group ([3]; 1-Fe 20 mg/kg/day (p=0.014), LPA 50 mg/kg/day (p=0.1)): 28% | Degree of cataract in worse eye relative to control group (in words) ([3]; LPA 50 mg/kg/day): not significantly reduced | Effect on cataract incidence (opacity measurement) ([3]; relative to control group, LPA 50 mg/kg/day): did not have a significant effect | Reduction in degree of cataractous damage, both eyes (histology score 0-4), relative to control group ([4]; 1-Fe 20 mg/kg/day, LPA 50 mg/kg/day): 32% | Cataract damage incidence by histological examination, relative to control group ([4]; corrole p=0.073): minimal

O=C1O[C@H]([C@@H](O)CO)C(O)=C1O [vitamin C]
Effect on the development of cataract (development of cataract): no significant effect

COc1cc(/C=C/C(=O)CC(=O)/C=C/c2ccc(O)c(OC)c2)ccc1O [curcumin]
Treating DN in a rat model (DN in a rat model): not successful
